From patent publication US20200362303A1, “MAINTENANCE-AND-AMPLIFICATION METHOD AND DIFFERENTIATION INDUCTION METHOD FOR PRIMORDIAL GERM CELLS/PRIMORDIAL GERM CELL-LIKE CELLS” (KYOTO UNIVERSITY, priority 2017, published 2020)

Tests used:
[1] = system: PGCLC induced from BVSCDT ESC(XY); experiment: Screening for factors inducing female germ cell fate: DT and BV expression by FACS at c7; assay type: cell-based, mouse; settings: added from c3, read at c7; RA 100 nM, cytokines 500 ng/ml; BMPs in combination with RA
Method: (§1) The PGC/PGCLC expansion medium was constituted of 10% KSR, 2.5% FBS, 0.1 mM NEAA, 1 mM sodium pyruvate, 2 mM L-glutamine, 0.1 mM 2-mercaptoethanol, 100 U/ml penicillin, 0.1 mg/ml […] streptomycin, […] forskolin, and 10 μM rolipram. The entire medium was changed every 2 days from c3. Cytokines/compounds for induction of female fate were provided from c3 to the end of culture. RA and BMP concentrations used were 100 nM and 300 ng/ml, respectively, unless otherwise specified. Brightfield and fluorescence images were captured using an IX73 inverted microscope (Olympus).
(§2) The preparation of d4/c0 PGCLC for FACS is described in “ESC culture/induction and PGCLC induction/culture”. To isolate germ cells in vivo, fetal gonads of BVSC, VR or SG mice were cut and processed for FACS according to the procedure described for d4/c0 PGCLC. Culture PGCLC was also prepared by the same method except that, after dissociation, the cells were washed with 0.1% BSA-DMEM containing 100 μg/ml DNase (Sigma-Aldrich), lysed DNA from dead cells was digested to prevent the formation of cell/debris clumps. Fluorescent activity of BV/SG, SC, or DT/VR was detected with FITC, Horizon V500 or PE-Texas Red channels, respectively. FACS data was analyzed using FlowJo or FACS Diva software package.
In the signal inhibitory experiment, LDN193189 (#04-0074; Stemgent) and BMS493 (B6688; Sigma-Aldrich) dissolved in DMSO were used as ALK2/3 inhibitor and RAR inhibitor, respectively.

[2] = system: cultured PGCLC; experiment: Immunofluorescence analysis of STRA8, SCP3, DDX4 in cultured PGCLC; assay type: cell-based, mouse
Method: as §1
(§3) Immunofluorescence (IF) analysis was performed as described previously (Hayashi et al, 2012). The following primary antibodies were used: chicken anti-GFP (ab13970; Abeam), rabbit anti-DDX4 (ab13840; Abeam), mouse anti-DDX4 (ab27591; Abeam), rabbit anti-DAZL (ab34129; Abeam), goat anti-DAZL (sc-27333; Santa Cruz), rabbit anti-STRA8 (ab49602; Abeam), mouse anti-SYCP3 (ab97672; Abeam) and rabbit anti-TEX14 (ab41733; Abeam)IgG. The following secondary antibodies were used: Alexa Fluor 488-goat anti-mouse or chicken IgG; Alexa Fluor 568-goat anti-rabbit IgG and Alexa Fluor 633-goat anti-mouse, anti-chicken IgG; Alexa Fluor 488-donkey anti-mouse IgG; Alexa Fluor 568-donkey anti-rabbit IgG and Alexa Fluor 633-donkey anti-goat IgG. IF images were acquired using a confocal microscope [FV1000 (Olympus) or LSM780 (Zeiss)].

[3] = system: PGCLCs induced from BVSCVR ESC (XX); experiment: BVSC and VR expression by FACS in cultured PGCLC; assay type: cell-based, mouse; settings: added at c3, read at c9; varying concentrations
Method: as §1, §2

[4] = system: BV/SC(+) cells; experiment: Cell cycle analysis by EdU and 7AAD uptake in PGCLC culture; assay type: cell-based, mouse; settings: RA alone; c9
Method: Cell cycle analysis was performed using the Click-iT EdU Flow Cytometry Assay Kit (C10424; Thermo Fischer Scientific) according to the manufacturer's instructions. Cultured PGCLC was treated with 10 μg/ml EdU for 30 min to 2 hr and analyzed by FACS.

[5] = system: PGC at E11.5; experiment: Ex vivo culture of E11.5 PGC, SCP3/DDX4/SG expression at c4; assay type: cell-based, mouse; settings: cultured 4 days; RA alone
Method: as §3

[6] = system: BV (+) d4 PGCLCs; experiment: Compound library screening for PGCLC proliferation (BV fluorescence by cell analyzer); assay type: cell-based, mouse; settings: three CsA entries in the screening data, two exceeded; 10 μM and 1 μM
Method: d4 PGCLC was seeded by FACS on m220-5 feeders in 96-well plates and BV fluorescence was monitored by cell analyzer (Cellavista; SynenTec). Fluorescence photograph for BV was taken by Cellavista cell analyzer with the following settings: 10× objectives; exposure time: 140 μsec; gain: 4×; binning: 4×4; excitation: 500/24 nm; emission: 542/27 nm. BV fluorescence was detected using the following algorithm/attribute parameters: sensitivity: 10; region merging: 200; min. granule intensity: 50; well edge distance: 200; contrast: 1; size: 3,000; intensity: 255; roughness: 500; granularity: 100; granule intensity: 255; granule count: 10,000; longishness: 100; compactness: 1. The value of “cell nucleus” was used for the detection of BV fluorescence.
The compound library was screened at concentrations of 10 μM and 1 μM. […] 200 BV (+) d4 PGCLCs induced from BDF1-2 ESC were seeded in the wells of a 96-well plate, and BV fluorescence was measured on the Cellavista cell analyzer on day 1 of culture (c1), c3, c5 and c7. The value of “cell nucleus” was used for the detection of BV fluorescence. […] For each compound, the fold difference in BV fluorescence between c1 and c7 was calculated for each compound and compounds with a fold difference value exceeding 3SD of the mean of the negative control were identified as those that potentiate PGCLC proliferation.

[7] = system: testes of neonatal W/Wv mice; experiment: Transplantation of amplified PGCLC into testes of neonatal W/Wv mice (spermatogenesis, offspring); assay type: in vivo, mouse; settings: d4c7 PGCLC; neonatal W/Wv recipients
Method: After purification of PGCLC by FACS, 1×10^4-1×10^5 cells per testis were injected into the testes of randomly selected neonatal (7 days old) or adult W/W^v mouse, as previously reported (Chuma et al, 2005). Where necessary, anti-mouse CD4 antibody ([…] per dose, clone GK1.5; Biolegend) was injected intraperitoneally on day 0, 2 or 4 for immunosuppression (Kanatsu-Shinohara et al, 2003). To assess pregnancy, recipients at 10 weeks post-transplant were mated with BDF1 females. The genotype of BVSC transgene progeny was determined as previously reported (Ohinata et al, 2008). For HE staining, testis or epididymis was fixed with Bouin's solution and embedded in paraffin, and sections were produced.
Spermatozoons were collected from the cauda epididymis and pre-incubated in HTF medium (Kyudo Co., Ltd.) for 1 hr at 37° C. Eggs were collected from BDF1 females that were superovulated by injecting PMSG and hCG and fertilized with sperm in HTF medium. The obtained 2-cell embryos were transferred to the fallopian tube of pseudopregnant ICR females 0.5 days after pregnancy (dpc). Pups were delivered by cesarean section at 18.5 dpc.
Spermatozoons were collected from the mouse testis that received transplantation of PGCLC by the method described in Example [I], and directly injected with a micromanipulator into the ovum collected from BDF1 females that were superovulated by injecting PMSG and hCG. […]

[8] = system: d4c7 PGCLC; experiment: Detection of apoptotic cells (Annexin V); assay type: cell-based, mouse; settings: FR10+CsA compared to FR10 alone
Method: d4c7 PGCLC cultured in FR10 or FR10+CsA was dispersed in single cells by TrypLE treatment, and stained using Annexin V Apoptosis Detection Kit APC (eBioscience) according to the manufacturer's instructions. The stained samples were analyzed using BD FACSAriaIII (BD) with FACSDiva (BD) software, and PGCLC was identified by BV fluorescence. Three biological replicates were analyzed for each sample.

[9] = system: E9.5 PGC; experiment: Expansion culture of E9.5 PGC on m220-5 feeder; assay type: cell-based, mouse; settings: CsA in addition to forskolin and PDE4 inhibitor (FR10)
Method: (§4) Since the m220-5 feeder treated with MMC was vulnerable to forskolin and rolipram, m220-5 cells were subcultured 3 times with both forskolin and rolipram each at 10 μM and adapted to these compounds before MMC treatment (1-2 μg/ml for 2 hr). d4 PGCLC or E9.5 PGC(BDF1×Stella-EGFP) was selected by FACS, and the cells were seeded on m220-5 cells in GMEM medium containing 10% KSR, 0.1 mM NEAA, 1 mM sodium pyruvate, 0.1 mM 2-mercaptoethanol, 100 U/ml penicillin, 0.1 mg/ml streptomycin, 2 mM L-glutamine, 2.5% FCS, 100 ng/ml SCF, 10 μM forskolin, and 10 μM rolipram. Half of the culture medium was changed every 2 days.
(§5) Expansion culture of PGC/PGCLC to investigate the combined effect of cyclosporin A (CsA) was performed as in Example [I], except that 5 μM CsA was added to the medium in addition to 10 μM forskolin and 10 μM loripram (FR10).

[10] = system: PGCLC; experiment: CsA or FK506 alone at various concentrations on PGCLC proliferation (fold difference d7/d1); assay type: cell-based, mouse; settings: 10, 5, 1, 0 μM tested, without FR10
[11] = system: d4 PGCLC; experiment: Expansion culture of d4 PGCLC on m220-5 feeder (cell number fold increase); assay type: cell-based, mouse
Method: as §4, §5

[12] = system: cultured PGCLC; experiment: Cell cycle analysis of cultured PGCLC (BrdU/EdU, FACS); assay type: cell-based, mouse; settings: FR10+CsA compared to FR10 alone
Method: The cell cycle status of ESC, EpiLC, d4, d4c3, d4c5 and d4c7 PGCLC(BDF1-2) at E13.5, E14.5 and E15.5 and male germ cells was examined in the same manner as in a previous report (Kagiwada et al, 2013). To label the cultured cells, the cells were incubated with BrdU (10 μM) for 30 min. To label gem cells, female mice (ICR) were mated with Stella-EGFP males and pregnant females were intraperitoneally injected with 1 mg BrdU and embryos were harvested 30 min later. Cultured cells or male gonads were dispersed in single cells by TrypLE treatment. To detect BrdU uptake, the APC-BrdU Flow Kit (BD Biosciences) was used according to the manufacturer's instructions. The stained samples were analyzed using BD FACSAriaIII (BD) with FACS Diva (BD) software, and PGCLC or male gem cells were respectively identified by BV or Stella-EGFP fluorescence. Three biological replicates were analyzed for each sample.
The analysis was performed as in Example [I] except that EdU (10 μM) was used in place of BrdU, and Click-iT™ Plus EdU Alexa Fluor™ 647 Flow Cytometry Assay Kit (Thermo Fisher Scientific) was used for detection of EdU uptake.

For `CC1=C(/C=C/C(C)=C/C=C/C(C)=C/C(=O)O)C(C)(C)CCC1` [RA, all trans retinoic acid], the “DT and BV expression in BV (+) cells” value [1] was “increased DT levels”, the “BV/SC(+) cells expressing STRA8” value ([2]; RA alone) was roughly 77.7% and the “induction of VR/DDX4 and SCP3 (+) cells (meiotic entry)” value ([2]; cultured PGCLC, c9, BMP4, 5, 7 combined with RA, BMS493 with BMP2, LDN193189 with RA and BMP2) was “did not activate VR/DDX4 or SCP3”. The “BVSC and VR expression” value [3] was “did not activate VR”, the “entry into meiosis by cell cycle profile” value [4] was “did not go into meiosis even in c9” and the “induction of SCP3” value [5] was “Neither control culture nor culture with RA alone induced SCP3”.

In the case of “cyclo{-[(2S,3R,4R,6E)-3-hydroxy-4-methyl-2-methylaminooct-6-enoyl]-L-2-aminobutanoyl-N-methylglycyl-N-methyl-L-leucyl-L-valyl-N-methyl-L-leucyl-L-alanyl-D-alanyl-N-methyl-L-leucyl-N-methyl-L-leucyl-N-methyl-L-valyl-} [CsA]”, the “fold difference (d7/d1) of BV signal in compound library screening” value [6] is reported as greater than 3 SD, the “function of amplified PGCLC after transplantation into testes” value [7] is reported as “capable of differentiating into functional spermatozoa” and the “percentage of apoptotic cells” value [8] is reported as “decreased percentage of apoptotic cells”. The “proliferation of E9.5 PGC with CsA added” value [9] was “about 16 fold”, the “most optimal concentration for growing PGCLCs” value [10] was 5 µM and the “proliferation of PGCLC on average with CsA added” value ([11]; 5 μM CsA in addition to forskolin and PDE4 inhibitor (FR10)) was “about 50 fold”. The “colony morphology and BVSC expression of expanded cells” value ([11]; expansion culture on m220 feeder) was “formed flat colonies and strongly expressed BVSCs” and the “percentage of S-stage cells” value [12] was “increased percentage of S-stage”.
